{"source": "paper PMC12714728", "about": "“VHH antibody loop guides design of a synthetic macrocyclic peptide that potently blocks influenza virus membrane fusion” (npj Viruses, 2025)", "key": {"[1]": {"test": "In vitro cell permeability assay", "details": "pig; for efflux ratio at 120 min, 30 nM / Papp B→A at 120 min, 30 nM: LLC-Parent; for Papp B→A at 120 min, 30 nM: basolateral to apical"}, "[2]": {"test_system": "P-gp (MDR1)", "test": "In vitro cell permeability / P-gp substrate assay", "details": "pig; for Papp A→B at 120 min, 30 nM: LLC-MDR1, apical to basolateral; for Papp B→A at 120 min, 30 nM: LLC-MDR1, basolateral to apical"}, "[3]": {"test_system": "H1/Cal HA (A/California/07/2009 (H1N1))", "type": "binding, influenza A virus"}, "[4]": {"test_system": "H1/NCa HA (A/New Caledonia/20/1999 (H1N1))", "type": "binding, influenza A virus"}, "[5]": {"test_system": "H5/Viet HA (A/Vietnam/1203/2004 (H5N1))", "type": "binding, influenza A virus"}, "[6]": {"test_system": "H1N1 A/Brisbane/59/2007 (H1/Bri) HA", "type": "biochemical, influenza A virus", "details": "pH 5.25"}, "[7]": {"test_system": "group 1 H1/Cal, H1/NCa, and H5/Viet HAs", "type": "binding, influenza A virus"}, "[8]": {"test_system": "H5/Viet virus (A/Vietnam/1203/2004 (H5N1))"}, "[9]": {"details": "LLC-PK1, pH 7.4, Papp BA, no inhibitor"}, "[10]": {"details": "LLC-PK1, pH 7.4, with elacridar (GF120918) 5 µM, Papp BA, + 5 µM GF120918"}}, "note": "Non-standard residues stand in square brackets, D forms with d. Residues, ends and D or L forms follow the SMILES beside them. ξ: configuration not given here. ξhhPhe = NC(CCCc1ccccc1)C(=O)O; dAbu = CC[C@@H](N)C(=O)O"}
{"smiles": "C[C@H]1O[C@@H](O[C@H]2[C@@H](O)C[C@H](O[C@H]3[C@@H](O)C[C@H](O[C@H]4CC[C@@]5(C)[C@H](CC[C@@H]6[C@@H]5C[C@@H](O)[C@]5(C)[C@@H](C7=CC(=O)OC7)CC[C@]65O)C4)O[C@@H]3C)O[C@@H]2C)C[C@H](O)[C@@H]1O", "note": "[3H-Digoxin, Digoxin, reference compound]", "values": [{"measurement": "Papp A→B at 120 min, 30 nM", "setting": "[1]; LLC-PK1, pH 7.4", "result": "2.45 ± 0.1", "unit": "×10⁻⁶ cm/s"}, {"measurement": "efflux ratio at 120 min, 30 nM", "setting": "[1]; LLC-PK1, pH 7.4, Efflux ratio BA/AB, no inhibitor", "result": 0.94}, {"measurement": "Papp B→A at 120 min, 30 nM", "setting": "[1]; [9]", "result": "2.31 ± 0.15", "unit": "×10⁻⁶ cm/s"}, {"measurement": "efflux ratio at 120 min, 30 nM", "setting": "[1]; LLC-PK1, pH 7.4, with elacridar (GF120918) 5 µM, Efflux ratio BA/AB, + 5 µM GF120918", "result": 0.9}, {"measurement": "Papp B→A at 120 min, 30 nM", "setting": "[1]; [10]", "result": "2.37 ± 0.08", "unit": "×10⁻⁶ cm/s"}, {"measurement": "efflux ratio at 120 min, 30 nM", "setting": "[2]; LLC-PK1, pH 7.4, Efflux ratio BA/AB, LLC-MDR1, no inhibitor", "result": 22.6}, {"measurement": "Papp A→B at 120 min, 30 nM", "setting": "[2]; LLC-PK1, pH 7.4, Papp AB, no inhibitor", "result": "0.45 ± 0.08", "unit": "×10⁻⁶ cm/s"}, {"measurement": "Papp B→A at 120 min, 30 nM", "setting": "[2]; [9]", "result": "10.3 ± 0.2", "unit": "×10⁻⁶ cm/s"}, {"measurement": "efflux ratio at 120 min, 30 nM", "setting": "[2]; LLC-PK1, pH 7.4, with elacridar (GF120918) 5 µM, Efflux ratio BA/AB, LLC-MDR1, + 5 µM GF120918", "result": 0.91}, {"measurement": "Papp A→B at 120 min, 30 nM", "setting": "[2]; LLC-PK1, pH 7.4, with elacridar (GF120918) 5 µM, Papp AB, + 5 µM GF120918", "result": "2.98 ± 0.15", "unit": "×10⁻⁶ cm/s"}, {"measurement": "Papp B→A at 120 min, 30 nM", "setting": "[2]; [10]", "result": "2.72 ± 0.05", "unit": "×10⁻⁶ cm/s"}]}
{"smiles": "CSCC[C@@H]1NC(=O)CNC(=O)CNC(=O)[C@H](C)NC(=O)[C@H](C(C)C)NC(=O)CNC(=O)[C@H](CC(C)C)NC(=O)[C@@H]2CCCN2C(=O)[C@H](CC(=O)O)NC(=O)[C@H](CCC(=O)O)NC(=O)[C@H](Cc2ccc(O)cc2)NC(=O)[C@H](CC(C)C)NC(=O)[C@H](CO)NC(=O)[C@@H]2CCCN2C(=O)[C@H]2CCCN2C(=O)[C@H](C(C)C)NC(=O)CNC1=O", "note": "[CP2]", "values": [{"measurement": "IC50", "setting": "[3]", "result": 5.13, "unit": "µM"}, {"measurement": "IC50", "setting": "[4]", "result": "12.7 ± 1.64", "unit": "µM"}, {"measurement": "IC50", "setting": "[5]", "result": 55.1, "unit": "µM"}, {"measurement": "IC50", "setting": "[6]", "result": "21.9 ± 3.24", "unit": "µM"}]}
{"smiles": "CSCC[C@@H]1NC(=O)CNC(=O)CNC(=O)[C@H](C)NC(=O)[C@H](C(C)C)NC(=O)CNC(=O)[C@H](CC(C)C)NC(=O)[C@@H]2CCCN2C(=O)[C@H](CC(=O)O)NC(=O)[C@H](CCC(=O)O)NC(=O)[C@H](Cc2ccc(O)cc2)NC(=O)[C@H](CC(C)C)NC(=O)[C@H]2CCCN2C(=O)[C@@H]2CCCN2C(=O)CNC1=O", "note": "[CP3]", "values": [{"measurement": "IC50", "setting": "[3]", "result": "1.71 ± 0.19", "unit": "µM"}, {"measurement": "IC50", "setting": "[4]", "result": "2.01 ± 0.54", "unit": "µM"}, {"measurement": "IC50", "setting": "[5]", "result": "27.1 ± 2.79", "unit": "µM"}, {"measurement": "IC50", "setting": "[6]", "result": "2.78 ± 0.26", "unit": "µM"}]}
{"smiles": "CSCC[C@@H]1NC(=O)CNC(=O)CNC(=O)[C@H](C)NC(=O)[C@H](C(C)C)NC(=O)CNC(=O)[C@H](CC(C)C)NC(=O)[C@@H]2CCCN2C(=O)[C@H](CC(=O)O)NC(=O)[C@H](CCC(=O)O)NC(=O)[C@H](Cc2ccc(O)cc2)NC(=O)[C@H](CC(C)C)NC(=O)[C@H](CO)NC(=O)[C@H](C(C)C)NC(=O)[C@H]2CCCN2C(=O)CNC(=O)[C@H](Cc2ccc(O)cc2)NC(=O)[C@H](C(C)C)NC(=O)CNC1=O", "note": "[CP4]", "values": [{"measurement": "IC50", "setting": "[3]", "result": 0.1, "unit": "µM"}, {"measurement": "IC50", "setting": "[4]", "result": "0.075 ± 0.01", "unit": "µM"}, {"measurement": "IC50", "setting": "[5]", "result": "0.76 ± 0.086", "unit": "µM"}, {"measurement": "IC50", "setting": "[6]", "result": "0.39 ± 0.04", "unit": "µM"}, {"measurement": "half-life / residence time t1/2 (range over HAs)", "setting": "[7]", "result": "2 to 16", "unit": "s"}, {"measurement": "koff (range over HAs)", "setting": "[7]", "result": "0.04–0.32"}, {"measurement": "Neutralization activity against H5N1 virus (in words)", "setting": "[8]", "result": "complete abolishment of neutralization activity"}]}
{"smiles": "CSCC[C@@H]1NC(=O)CNC(=O)CNC(=O)[C@H](C)NC(=O)[C@H](C(C)C)NC(=O)CNC(=O)[C@H](CC(C)C)NC(=O)[C@@H]2CCCN2C(=O)[C@H](CC(=O)O)NC(=O)[C@H](CCC(=O)O)NC(=O)[C@H](Cc2ccc(O)cc2)NC(=O)[C@H](CC(C)C)NC(=O)[C@H](CO)NC(=O)CNC(=O)[C@H]2CCCN2C(=O)[C@H](C(C)C)NC(=O)CNC1=O", "note": "[CP5]", "values": [{"measurement": "IC50", "setting": "[3]", "result": 4.63, "unit": "µM"}, {"measurement": "IC50", "setting": "[6]", "result": "17 ± 4.58", "unit": "µM"}]}
{"smiles": "CSCC[C@@H]1NC(=O)CNC(=O)CNC(=O)[C@H](C)NC(=O)[C@H](C(C)C)NC(=O)CNC(=O)[C@H](CC(C)C)NC(=O)[C@@H]2CCCN2C(=O)[C@H](CC(=O)O)NC(=O)[C@H](CCC(=O)O)NC(=O)[C@H](Cc2ccc(O)cc2)NC(=O)[C@H](CC(C)C)NC(=O)[C@H]2CCCN2C(=O)CNC(=O)CNC1=O", "note": "[CP6]", "values": [{"measurement": "IC50", "setting": "[3]", "result": "1.09 ± 0.2", "unit": "µM"}, {"measurement": "IC50", "setting": "[4]", "result": "1.47 ± 0.32", "unit": "µM"}, {"measurement": "IC50", "setting": "[5]", "result": "13.5 ± 2.17", "unit": "µM"}, {"measurement": "IC50", "setting": "[6]", "result": "2.74 ± 0.9", "unit": "µM"}]}
{"smiles": "CC[C@H]1NC(=O)[C@H](C(C)C)NC(=O)CNC(=O)C(CCCc2ccccc2)NC(=O)[C@@H]2CCCN2C(=O)[C@H](CC(=O)O)NC(=O)[C@H](CCC(=O)O)NC(=O)[C@H](Cc2ccc(O)cc2)NC(=O)[C@H](CC(C)C)NC(=O)[C@H]2CCCN2C(=O)CNC(=O)CNC(=O)[C@H](CCSC)NC(=O)CNC(=O)CNC1=O", "note": "(stereo partly drawn) [CP7] (cyclo([dP]LYEDP[ξhhPhe]GV[dAbu]GGMGG))", "values": [{"measurement": "IC50", "setting": "[3]", "result": "0.36 ± 0.01", "unit": "µM"}, {"measurement": "IC50", "setting": "[4]", "result": "0.22 ± 0.01", "unit": "µM"}, {"measurement": "IC50", "setting": "[5]", "result": "14.8 ± 0.57", "unit": "µM"}, {"measurement": "IC50", "setting": "[6]", "result": "3.54 ± 0.31", "unit": "µM"}]}
